Here are results for one compound from patent publication US20250314644A1, “METHODS COMPRISING DETECTION OF ADP-HEPTOSE” (CHILDREN'S HOSPITAL MEDICAL CENTER, priority 2023, published 2025).

One test concerns Dnmt3a^−/− mice. The test can be described thus: Cytokines measured in BM fluid after ADP-heptose in vivo. Details: species or system mouse. The method, then: FIG. 9 depicts the effects of ADP-heptose on inflammatory cytokines and downstream signaling. (A) Heatmap of differentially expressed cytokines and chemokines as measured in the BM fluid of Dnmt3a^WT, Dnmt3a^KO, and Dnmt3a^KO; Alpk1^KO mice treated with ADP-heptose (0.5 mg/kg) in vivo. (B) Immunoblotting performed on THP1 cells untreated or treated with ADP-heptose (1 μg/ml) in combination with DMSO (−), UBE2N inhibitor at 5 μM (+), UBE2N inhibitor at 10 μM (++), IRAK1/4 inhibitor at 0.25 μM (+), and IRAK1/4 inhibitor at 0.5 μM (++) for 30 minutes. (C) Immunoblot analysis of NF-kB modulators on THP1 wildtype (WT), IRAK1KO, IRAK4KO, IRAK1/4d^KO, MyD88KO, and TRAF6^KO cells upon treatment with ADP-heptose (1 μg/ml) for 30 minutes.
Dysregulation of innate immune and inflammatory states is implicated in pre-leukemic conditions and overt leukemia by creating an inflammatory environment suppressive for normal hematopoiesis while promoting leukemic stem and progenitor cell expansion. Moreover, chronic inflammation associated with CHIP is implicated in cardiovascular disease. […] First, to determine whether ADP-heptose treatment creates an inflammatory milieu, Dnmt3a^−/− and WT mice were treated with ADP-heptose and cytokines were measured in the BM fluid.

Another test concerns healthy donor cells. The test can be described thus: Immunoblot of NF-κB activation in CD34+ HSPCs. The test is classed as cell-based, human. The method, then:
(§1) Human CD34+ and MDS patient cells were maintained in StemSpan Serum-Free Expansion Media (Cat no. #09650, Stemcell Technologies) supplemented with 10 ng/ml of recombinant human stem cell factor (SCF) (Cat no. 300-07-50UG, PeproTech), recombinant human thrombopoietin (TPO) (Cat no. 300-18-50UG, PeproTech), recombinant human FLT3 ligand (FLT3L) (Cat no. 300-19-50UG, PeproTech), recombinant human interleukin-3 (IL-3) (Cat no. 200-03-50UG, PeproTech), and recombinant human interleukin-6 (IL-6) (Cat no. 200-06-50UG, PeproTech), as previously described. Human CD34+ cells from healthy individuals were obtained from the Yale Cooperative Center of Excellence in Hematology (YCCEH). […]
(§2) Protein concentration was evaluated by bicinchoninic acid (BCA) assay (Pierce, Cat #23225). SDS sample buffer was added to the lysates and the proteins were separated by SDS-polyacrylamide gel electrophoresis, transferred to PVDF or nitrocellulose membranes (BIO-RAD, Cat #1620112), and analyzed by immunoblotting. […] Membranes were visualized using ECL Western Blotting Substrate (Pierce, #32106) or SuperSignal West Femto Substrate (Thermo Scientific, #34096), imaged on a BIO-RAD ChemiDoc Touch Imaging system and analyzed with Image lab software 6.0.1 (Biorad) or Image J (22930834).

The next test deals with MDS CD34+ HSPCs. The test can be described thus: Immunoblot of NF-κB activation in CD34+ HSPCs. In kind it is cell-based, human. The method, then: as §1, §2

With `Nc1ncnc2c1ncn2[C@@H]1O[C@H](COP(=O)(O)OP(=O)(O)O[C@@H]2O[C@H]([C@H](O)CO)[C@@H](O)[C@H](O)[C@@H]2O)[C@@H](O)[C@H]1O` [ADP-heptose, ADP-D-glycero-β-D-manno-heptose], the “cytokines in BM fluid (IL-1β, G-CSF, TNFα)” value with Dnmt3a^−/− mice is recorded as “elevated expression of numerous cytokines”. The “TIFA-dependent activation of NF-κB (phosphorylated IKKα/β and RelA)” value in the test on healthy donor cells is listed as “not in healthy donor cells”; in the test on MDS CD34+ HSPCs, “able to induce TIFA-dependent activation of NF-κB”.
